Assay results taken from the NIST ThermoML archive (doi:10.1016/j.fluid.2017.02.012).

Settings: Liquid, Pendant drop shape

CCCCCCCCCCCCCCC [pentadecane] + O=C=O
Settings	interfacial tension [mN/m]
313.15 K, 430 kPa	21.65
313.15 K, 1100 kPa	20.48
313.15 K, 2090 kPa	18.38
313.15 K, 3090 kPa	16.15
313.15 K, 4080 kPa	14.04
313.15 K, 5090 kPa	11.41
313.15 K, 6090 kPa	8.91
313.15 K, 6890 kPa	6.25
313.15 K, 8060 kPa	2.69
333.15 K, 360 kPa	20.84
333.15 K, 1380 kPa	19.61
333.15 K, 2390 kPa	17.57
333.15 K, 3490 kPa	15.7
333.15 K, 4330 kPa	14.41
333.15 K, 5290 kPa	12.81
333.15 K, 5990 kPa	11.75
333.15 K, 7290 kPa	9.17
333.15 K, 8400 kPa	6.86
333.15 K, 9860 kPa	4.22
353.15 K, 580 kPa	19.83
353.15 K, 1630 kPa	18.11
353.15 K, 2790 kPa	17.01
353.15 K, 3610 kPa	15.63
353.15 K, 4630 kPa	14.2
353.15 K, 5700 kPa	12.85
353.15 K, 6630 kPa	11.53
353.15 K, 7720 kPa	9.79
353.15 K, 8560 kPa	8.69
353.15 K, 9490 kPa	7.32
353.15 K, 10730 kPa	5.87
353.15 K, 11560 kPa	4.82
353.15 K, 12000 kPa	4.24
373.15 K, 1080 kPa	18.21
373.15 K, 2060 kPa	16.61
373.15 K, 3240 kPa	15.25
373.15 K, 4280 kPa	14.53
373.15 K, 5390 kPa	13.01
373.15 K, 6240 kPa	12.08
373.15 K, 7340 kPa	10.81
373.15 K, 8340 kPa	9.6
373.15 K, 9400 kPa	8.42
373.15 K, 10490 kPa	7.37
373.15 K, 12060 kPa	5.74
373.15 K, 13190 kPa	4.64
373.15 K, 13960 kPa	4.06
393.15 K, 3280 kPa	14.72
393.15 K, 5680 kPa	12.36
393.15 K, 8600 kPa	9.58
393.15 K, 11400 kPa	6.86
393.15 K, 14720 kPa	4.22

CCCCCCCCCCCCC [tridecane] + O=C=O
Settings	interfacial tension [mN/m]
313.15 K, 550 kPa	22.3
313.15 K, 2100 kPa	18.58
313.15 K, 3240 kPa	15.83
313.15 K, 4300 kPa	13.06
313.15 K, 5300 kPa	10.43
313.15 K, 5940 kPa	8.57
313.15 K, 7490 kPa	3.8
333.15 K, 330 kPa	21.41
333.15 K, 1360 kPa	19.62
333.15 K, 2440 kPa	17.54
333.15 K, 3580 kPa	15.34
333.15 K, 5410 kPa	11.87
333.15 K, 5930 kPa	10.74
333.15 K, 6830 kPa	9.08
333.15 K, 8000 kPa	6.91
333.15 K, 8780 kPa	5.38
333.15 K, 9410 kPa	4.25
333.15 K, 10010 kPa	3.24
353.15 K, 440 kPa	19.97
353.15 K, 1760 kPa	17.82
353.15 K, 3190 kPa	15.75
353.15 K, 4830 kPa	13.15
353.15 K, 5700 kPa	11.84
353.15 K, 6050 kPa	11.5
353.15 K, 7500 kPa	9.24
353.15 K, 8990 kPa	7.3
353.15 K, 10030 kPa	5.75
353.15 K, 10880 kPa	4.76
353.15 K, 11770 kPa	3.76
373.15 K, 540 kPa	18.67
373.15 K, 2380 kPa	16.03
373.15 K, 4400 kPa	13.13
373.15 K, 5790 kPa	11.68
373.15 K, 8100 kPa	9.03
373.15 K, 9910 kPa	6.93
373.15 K, 12260 kPa	4.57
373.15 K, 13710 kPa	3.32
393.15 K, 410 kPa	17.04
393.15 K, 4630 kPa	12.6
393.15 K, 8730 kPa	8.27
393.15 K, 13580 kPa	4.32

CCCCCCCCCCC [undecane] + O=C=O
Settings	interfacial tension [mN/m]
313.15 K, 340 kPa	22.19
313.15 K, 1410 kPa	19.54
313.15 K, 2530 kPa	16.91
313.15 K, 3590 kPa	14.36
313.15 K, 4700 kPa	11.15
313.15 K, 5630 kPa	8.47
313.15 K, 6540 kPa	5.82
313.15 K, 7100 kPa	3.75
333.15 K, 350 kPa	20.59
333.15 K, 1700 kPa	17.96
333.15 K, 3240 kPa	14.87
333.15 K, 4730 kPa	12.15
333.15 K, 5810 kPa	9.86
333.15 K, 7190 kPa	7.45
333.15 K, 8000 kPa	5.82
333.15 K, 8910 kPa	4.12
353.15 K, 440 kPa	18.64
353.15 K, 1800 kPa	16.41
353.15 K, 3430 kPa	14.14
353.15 K, 4930 kPa	11.74
353.15 K, 6480 kPa	9.53
353.15 K, 7890 kPa	7.53
353.15 K, 8940 kPa	5.99
353.15 K, 10190 kPa	4.39
373.15 K, 410 kPa	17.05
373.15 K, 1880 kPa	15.22
373.15 K, 3100 kPa	13.86
373.15 K, 4410 kPa	12.26
373.15 K, 5910 kPa	10.19
373.15 K, 7020 kPa	8.84
373.15 K, 8600 kPa	7.05
373.15 K, 9900 kPa	5.73
373.15 K, 11680 kPa	3.99
393.15 K, 530 kPa	15.69
393.15 K, 3300 kPa	12.38
393.15 K, 5820 kPa	9.76
393.15 K, 9300 kPa	6.53
393.15 K, 12810 kPa	3.55
